Measurements published in patent publication US4206224A, “Treatment of infections” (Beecham Group Limited, priority 1976, dated 1980).
In brackets after ≈: the same amount, converted by molar mass. Entries after “also recorded” stand apart in the source; their conditions may differ. Counter-ions that a name gives are not always drawn.

Legend:
[1] = system: M. gallisepticum S6; assay: Antimycoplasmal MIC, metabolic-inhibition test, M. gallisepticum S6; type: cell-based; conditions: Mycoplasmoides gallisepticum, 168 h, dilutions 250-0.5 μg/ml, 37° C., seven days, read-out: MIC (in vitro antimycoplasmal activity)
[2] = system: M. synoviae 25204; assay: Antimycoplasmal MIC, metabolic-inhibition test, M. synoviae 25204; type: cell-based; conditions: Mycoplasmopsis synoviae, 168 h, dilutions 250-0.5 μg/ml, 37° C., seven days, read-out: MIC (in vitro antimycoplasmal activity)
[3] = system: M. pulmonis 'JB'; assay: Antimycoplasmal MIC, metabolic-inhibition test, M. pulmonis 'JB'; type: cell-based; conditions: Mycoplasmopsis pulmonis, 168 h, dilutions 250-0.5 μg/ml, 37° C., seven days, read-out: MIC (in vitro antimycoplasmal activity)
[4] = system: M. bovis 25025; assay: microbe, parasite or virus in culture; type: cell-based; conditions: 25025, 168 h, read-out: MIC (in vitro antimycoplasmal activity)
[5] = system: M. suipneumoniae (Laber); assay: Antimycoplasmal MIC, metabolic-inhibition test, M. suipneumoniae (Laber); type: cell-based; conditions: Mesomycoplasma hyopneumoniae, 168 h, dilutions 250-0.5 μg/ml, 37° C., seven days, read-out: MIC (in vitro antimycoplasmal activity)
[6] = system: M. dispar H225; assay: Antimycoplasmal MIC, metabolic-inhibition test, M. dispar H225; type: cell-based; conditions: 168 h, dilutions 250-0.5 μg/ml, 37° C., seven days, read-out: MIC (in vitro antimycoplasmal activity)
[7] = system: M. pneumoniae 427 a; assay: Antimycoplasmal MIC, metabolic-inhibition test, M. pneumoniae 427 a; type: cell-based; conditions: Mycoplasmoides pneumoniae, 168 h, dilutions 250-0.5 μg/ml, 37° C., seven days, read-out: MIC (in vitro antimycoplasmal activity)
[8] = system: M. fermentans MW KL 4; assay: Antimycoplasmal MIC, metabolic-inhibition test, M. fermentans MW KL 4; type: cell-based; conditions: Mycoplasmopsis fermentans, MWKL4, 168 h, dilutions 250-0.5 μg/ml, 37° C., seven days, read-out: MIC (in vitro antimycoplasmal activity)
[9] = system: mycoplasmas from human and veterinary sources; assay: Antimycoplasmal activity in vitro, overall; type: cell-based
Protocol: 1. The minimal inhibitory concentrations (MIC) of pseudomonic acid and methyl pseudomonate were determined in Microtitre plates, by a modification of the metabolic-inhibition test (Taylor-Robinson, 1967). The compounds were serially diluted in sterile de-ionised water to give a range of concentrations from 250-0.5 μg/ml. Mycoplasma broth containing 1% (w/v) of glucose and 0.005% (w/v) of phenon red, was added at a strength to compensate for its dilution by the aqueous drug solution. Approximately 10^4 colony forming units of mycoplasma were added to each concentration of drug. Drug-free infected, noninfected and pH control wells were included on each plate. Plates were sealed with cellotape and incubated at 37° C. for seven days. The MIC was the lowest concentration of compound that prevented a colour change in the mycoplasma broth, caused by the metabolism of glucose by the mycoplasmas.

[10] = system: Staphylococcus aureus; assay: Antibacterial spectrum (MIC), Staphylococcus aureus; type: cell-based
[11] = system: Staphylococcus epidermidis; assay: Antibacterial spectrum (MIC), Staphylococcus epidermidis; type: cell-based
[12] = system: Streptococcus pyogenes; assay: Antibacterial spectrum (MIC), Streptococcus pyogenes; type: cell-based
[13] = system: Streptococcus pneumoniae; assay: Antibacterial spectrum (MIC), Streptococcus pneumoniae; type: cell-based
[14] = system: Streptococcus faecalis; assay: Antibacterial spectrum (MIC), Streptococcus faecalis; type: cell-based; conditions: Enterococcus faecalis
[15] = system: Haemophilus influenzae; assay: Antibacterial spectrum (MIC), Haemophilus influenzae; type: cell-based
[16] = system: Neisseria gonorrhoeae; assay: Antibacterial spectrum (MIC), Neisseria gonorrhoeae; type: cell-based
[17] = system: Neisseria meningitidis; assay: Antibacterial spectrum (MIC), Neisseria meningitidis; type: cell-based
[18] = system: staphylococci; assay: Antibacterial spectrum, staphylococci; type: cell-based
[19] = system: streptococci; assay: Antibacterial spectrum, streptococci; type: cell-based; conditions: most streptococci
[20] = system: Bordetella bronchiseptica; assay: Antibacterial activity, Bordetella bronchiseptica; type: cell-based
[21] = system: Pasteurella multocida; assay: Antibacterial activity, Pasteurella multocida; type: cell-based
[22] = Blood and urinary excretion levels, mouse; type: in vivo; conditions: 50 mg/kg; for Cmax: blood, read-out: Peak Level (blood); for dose excreted: urine, read-out: Urinary Recovery
Source text: (§1) The results of administering pseudomonic acid to four different animal species are shown in Table 2 in terms of peak blood levels and urinary recovery.

[23] = Blood and urinary excretion levels, rat; type: in vivo; conditions: 100 mg/kg; for Cmax: blood, read-out: Peak Level (blood); for dose excreted: urine, read-out: Urinary Recovery
Source text: as §1

[24] = Blood and urinary excretion levels, dog; type: in vivo; conditions: 100 mg/kg; for Cmax: blood, read-out: Peak Level (blood); for dose excreted: urine, read-out: Urinary Recovery
Source text: as §1

[25] = Blood and urinary excretion levels, squirrel monkey; type: in vivo; conditions: 100 mg/kg; for Cmax: blood, read-out: Peak Level (blood); for dose excreted: urine, read-out: Urinary Recovery
Source text: as §1

[26] = Toxicity (LD50), rat; type: in vivo; conditions: for LD50: in vivo
[27] = Toxicity (LD50), mouse; type: in vivo; conditions: for LD50: in vivo
[28] = system: M. synoviae ATCC 25204; assay: M. synoviae-induced airsacculitis of chicken; type: in vivo, chicken (white leghorn chicks) infected with M. synoviae
Protocol: 3. M. synoviae-induced airsacculitis of chicken 0.5 ml volumes of a broth culture containing about 10^8 CFU of M. synoviae ATCC No. 25204 were injected into the left abdominal air sacs of groups of five, one week old, specific pathogen free (SPF) white leghorn chicks. […] Seven days after infection the chicks were autopsied and the air sacs were examined macroscopically for mycoplasmal lesions and microbiologically for the presence of M. synoviae.

[29] = system: M. pulmonis 'JB'; assay: M. pulmonis-induced arthritis of mice; conditions: for Number of mice with arthritis/total number mice: 200 mg/kg × 5 s.c.; for prevented the development of arthritis: 200 mg/kg s.c. daily, five consecutive days
[30] = system: Mycoplasma species; assay: Antibacterial spectrum (MIC), Mycoplasma species
[31] = system: Gram-negative bacilli; assay: Antibacterial spectrum (MIC), Gram-negative bacilli

C/C(=C\C(=O)OCCCCCCCCC(=O)O)C[C@@H]1OC[C@H](C[C@@H]2O[C@H]2[C@@H](C)[C@H](C)O)[C@@H](O)[C@H]1O [Pseudomonic acid (Na salt)]
MIC [1]: 7.8 µg/mL | MIC [2]: < 0.5 µg/mL | MIC [3]: < 0.5 µg/mL | MIC [4]: < 0.5 µg/mL | MIC [5]: 1.9 to 3.9 µg/mL | MIC [6]: < 0.5 µg/mL | MIC [7]: < 0.5 µg/mL | MIC [8]: < 0.5 µg/mL | antimycoplasmal activity in vitro (in words) [9]: good antimycoplasmal activity in vitro

C/C(=C\C(=O)OCCCCCCCCC(=O)O)C[C@@H]1OC[C@H](C[C@@H]2O[C@H]2[C@@H](C)[C@H](C)O)[C@@H](O)[C@H]1O [Pseudomonic acid]
MIC [10]: 0.25 µg/mL (≈ 0.499 µM) | MIC [11]: 0.25 µg/mL (≈ 0.499 µM) | MIC [12]: 0.25 µg/mL (≈ 0.499 µM) | MIC [13]: 0.12 µg/mL (≈ 0.24 µM) | MIC [14]: 50 µg/mL (≈ 99.9 µM) | MIC [15]: 0.12 µg/mL (≈ 0.24 µM) | antibacterial activity / susceptibility (in words) ([15]; including strains resistant to other antibiotics): very susceptible; also recorded: particularly high activity | MIC ([16]; Neisseria gonorrhoeae): 0.01 µg/mL (≈ 0.02 µM) | antibacterial activity / susceptibility (in words) ([16]; Neisseria gonorrhoeae (gonococci), including strains resistant to other antibiotics): very susceptible; also recorded: particularly high activity | MIC [17]: 0.02 µg/mL (≈ 0.0399 µM) | antibacterial activity (in words) [18]: good activity | antibacterial activity (in words) [19]: good activity | antibacterial activity (in words) [20]: has activity | antibacterial activity (in words) [21]: has activity | Cmax ([22]; po): < 1000 ng/mL | Cmax ([22]; sc): 7200 ng/mL | dose excreted ([22]; po): < 1% | dose excreted ([22]; sc): < 1% | Cmax ([23]; im): 15800 ng/mL | Cmax ([23]; iv): 66700 ng/mL | dose excreted ([23]; im): < 1% | dose excreted ([23]; iv): < 1% | Cmax ([24]; im): 25300 ng/mL | Cmax ([24]; po): 3600 ng/mL | dose excreted ([24]; im): 1% | dose excreted ([24]; po): < 1% | Cmax ([25]; im): 40000 ng/mL | Cmax ([25]; po): 26800 ng/mL | dose excreted ([25]; im): 2% | dose excreted ([25]; po): 1.5% | LD50 ([26]; iv): 1310 to 2560 mg/kg | LD50 ([26]; po): 5000 mg/kg | LD50 ([26]; sc): 5000 mg/kg | toxicity (in words) ([26]; three routes): low degree of toxicity | LD50 ([27]; iv): 1640 to 2050 mg/kg | LD50 ([27]; p.c. (so in the source)): 5000 mg/kg | LD50 ([27]; sc): 4000 to 5000 mg/kg | toxicity (in words) ([27]; three routes): low degree of toxicity | prevented the development of airsac lesions ([28]; 200 mg/kg i.m. twice per day): four out of five birds | re-isolation of M. synoviae from airsacs (in words) ([28]; 200 mg/kg i.m. twice per day): not re-isolated from the airsacs of any | Number birds protected/total ([28]; 200 mg/kg × 7 i.m., autopsy seven days after infection): 4/5 | Number of birds from which M. synoviae was re-isolated ([28]; 200 mg/kg × 7 i.m., seven days after infection): 0 | activity in vivo in experimentally induced mycoplasmal infection (in words) ([28]; chicken): active in vivo | Number of mice with arthritis/total number mice ([29]; Expt 1, day 3 after infection): 0/6 | Number of mice with arthritis/total number mice ([29]; Expt 1, day 7 after infection): 1/5 | Number of mice with arthritis/total number mice ([29]; Expt 1, day 10 after infection): 1/5 | Number of mice with arthritis/total number mice ([29]; Expt 1, day 14 after infection): 1/5 | Number of mice with arthritis/total number mice ([29]; Expt 2, day 3 after infection): 0/8 | Number of mice with arthritis/total number mice ([29]; Expt 2, day 8 after infection): 2/8 | Number of mice with arthritis/total number mice ([29]; Expt 2, day 10 after infection): 2/8 | Number of mice with arthritis/total number mice ([29]; Expt 2, day 14 after infection): 4/8 | prevented the development of arthritis ([29]; first experiment): four out of five mice | activity in vivo in experimentally induced mycoplasmal infection (in words) ([29]; mice): active in vivo | prevented the development of arthritis ([29]; second experiment): four out of eight mice | antimycoplasmal activity / sensitivity (in words) ([30]; Mycoplasma sp, b37: most mycoplasma species): very sensitive; also recorded: particularly high activity | MIC ([30]; Mycoplasma species): <0.01 to 25 µg/mL | antibacterial activity (in words) [31]: relatively inactive

COC(=O)CCCCCCCCOC(=O)/C=C(\C)C[C@@H]1OC[C@H](C[C@@H]2O[C@H]2[C@@H](C)[C@H](C)O)[C@@H](O)[C@H]1O [methyl pseudomonate]
MIC [1]: 15.6 µg/mL (≈ 30.3 µM) | MIC [2]: < 0.5 µg/mL | MIC [3]: < 0.5 µg/mL | MIC [4]: < 0.5 µg/mL | MIC [5]: 7.8 µg/mL (≈ 15.2 µM) | MIC [6]: < 0.5 µg/mL | MIC [7]: 7.8 µg/mL (≈ 15.2 µM) | MIC [8]: < 0.5 µg/mL | antimycoplasmal activity in vitro (in words) [9]: good antimycoplasmal activity in vitro
